Laboratory results published in patent publication US20190183910A1, “ENHANCING DNA REPAIR AND PREVENTING AGING AND ITS CONSEQUENCES IN REPRODUCTIVE AND OTHER CELLS” (NEW YORK MEDICAL COLLEGE, priority 2016, published 2019).

What was measured:
[1] = clinical use, FDA-approved for multiple sclerosis; cited from earlier work
[2] = post-transplantation clinical trials; cited from earlier work
mouse sperm [3] = test: Neutral comet assay on mouse sperm; type: cell-based; settings: mouse sperm, H2O2 alone (1 mM), without ATM inhibitor, n=9, mean±SEM
Description: (§1) Treatment was performed with genotoxic stress (1 mM H2O2), S1P (200 μM), and S1P with genotoxic stress and control in culture for one hour. Also, the use of an ATM inhibitor was utilized (10 μM) (KU-55593, Abcam) (Li et al., 2014). We assessed DNA damage, apoptosis, and chromatin integrity. We also studied the DNA DSB repair gene expression by qRT-PCR in sperm lysates.
Slides were prepared 48 hours prior to experimentation by coating normal glass microscope slides with 500 μl normal melting point agar (NMPA, 0.5% w/v in PBS) solution and left to dry at room temperature for no less than 48 hours. Once samples were obtained, 10 μl of mouse sperm suspension was mixed with 90 μl of 0.5% low melting point agar (LMPA). Then, this 100 μl solution was added to the NMPA-coated slides. Coverslips were added and slides were placed on a metallic tray on ice and in the dark for 5 minutes. The cover slips were then removed and another layer of LMPA was added. Cover slips were subsequently replaced before the LMPA hardened. Slides were then kept in the dark on ice again for another 5 minutes. After ten minutes, the cover slips were removed and slides were placed in staining jars containing ice cold lysing solution (2.5 M NaCl, 100 mM EDTA, sodium N-laurylsacrosinate [SLS]. [1% w/v] and 10 mM Trizma base pH10, and 1% Triton-X-100 and 10% DMSO [immediately adding before use]) for 1 hour at 4° C. in a dark place.
After this lysis step, the slides were washed three times for 5 minutes with the cold electrophoresis buffer (0.089 M Tris base, 0.089 M boric acid and 2 mM EDTA [pH 8.3]), and then placed flatly in the electrophoresis tank face up for 30 minutes. This incubation period was used to achieve the unwinding of the DNA. Electrophoresis was then performed at 18 V for 60 minutes. After this, slides were washed twice in PBS for 5 minutes each. Before analysis could occur, the sperm within the slides needed to be fixed by two 10 minute washes in ethanol, and then air drying at room temperature. Ethidium bromide (50 μl at 10 μg/ml in water) was then added on the slide, and sealed with a cover slip. Slides were kept moist, wrapped in aluminum foil to prevent light exposure, and stored at 4° C. until analysis (Smart et al., 2008).
Slides from both alkaline and neutral comets were imaged by fluorescence microscopy using a Nikon OPTIPHOT microscope. ImageJ was used for comet assay analysis, which calculated tail length, tail moment, and % of DNA in the tail. […] The comets were “on scale” for the calculations to be correct (the brightest pixels of interest were below 255 on an 8-bit scale). […] To analyze the slides, an oval around the sperm head was drawn and calculated and then an oval around the sperm tail was drawn and calculated. […] It was calculated as the Pythagorean distance between two points. […]

mouse sperm [4] = test: Alkaline comet assay on mouse sperm; type: cell-based; settings: mouse sperm, H2O2 alone (1 mM), without ATM inhibitor, n=9, mean±SEM
Description: as §1
Slides were prepared 48 hours prior to experimentation by coating normal glass microscope slides with 500 μl normal melting point agar (0.5% w/v in PBS) solution and left to dry at room temperature for no less than 48 hours. Then, 10 μl of mouse sperm suspension was mixed with 90 μl of 0.5% LMPA. Then this 100 μl solution was added to the NMPA-coated slides. Coverslips were added and slides were placed on a metallic tray on ice and in the dark for 5 minutes. The cover slips were removed and a 90 μl layer of LMPA was added. Cover slips were subsequently replaced before the LMPA hardened. Slides were then kept in the dark on ice again for another 5 minutes. After ten minutes, the cover slips were removed and slides were placed in staining jars containing ice cold lysing solution (2.5 M NaCl, 200 mM NaOH, 100 mM EDTA, 10 mM Trizma Base, 1% Triton X-100 and 10% DMSO [pH 10]) for 1.5 hours at 4° C. in a dark place.
After this lysis step, the slides were washed three times for 5 minutes with TE buffer (pH 8.0), and then placed flatly in the electrophoresis tank face up for 30 minutes to achieve the unwinding of the DNA. The alkaline electrophoresis buffer in this tank included 300 mM NaOH and 1 mM EDTA [pH13]. This incubation period was used to achieve the alkaline unwinding of the DNA. Electrophoresis was then performed at 25 V, 300 mA for 30 minutes. After this, slides were washed twice in neutralization buffer (0.4 M Tris, pH 7.5) for 5 minutes each. Before analysis could occur, the sperm within the slides needed to be fixed by draining the slides well on paper towels and then subjecting them to two 10 minute washes in ethanol, and then air drying at room temperature for 5 minutes. Ethidium bromide (50 μl at 10 μg/ml in water) was then added on the slide, and sealed with a cover slip. Slides were kept moist, wrapped in aluminum foil to prevent light exposure, and stored at 4° C. until analysis (Williams et al., 2014).
Slides from both alkaline and neutral comets were imaged by fluorescence microscopy using a Nikon OPTIPHOT microscope. ImageJ was used for comet assay analysis, which calculated tail length, tail moment, and % of DNA in the tail. […] To analyze the slides, an oval around the sperm head was drawn and calculated and then an oval around the sperm tail was drawn and calculated. […] It was calculated as the Pythagorean distance between two points. […]

human sperm = test: Alkaline comet assay on human sperm; type: cell-based; settings: H2O2 alone, without ATM inhibitor, n=3, mean±SEM

Structure (SMILES) | safety profile [1] | benefit as antirejection medication [2] | percent tail DNA, neutral comet (mouse sperm [3]) [%] | percent tail DNA, alkaline comet (mouse sperm [4]) [%] | percent tail DNA, alkaline comet (human sperm) [%]
CCCCCCCCc1ccc(CCC(N)(CO)CO)cc1 [FTY720] | acceptable safety profile | failed to show any significant benefit |  |  | 
OO [H2O2, reference compound] |  |  | 29.6±0.64 | 27.3±0.90 | 24.0±1.70
